US10533034B2, “Human iNKT cell activation using glycolipids” (ACADEMIA SINICA, priority 2014, dated 2020)

Key:
[1] = tested on: iNKT TCR of DN3A4-1.2 Vα14+ iNKT hybridoma cells; assay: Binding avidity of mCD1d-loaded glycolipids to Vα14+ iNKT cells (ternary interaction); parameters: species or system mouse; conditions: complexed with mCD1d; Scatchard transformation; flow cytometry; read-out: KD of ternary complex, mCD1d-glycolipid toward iNKT TCR
Method: (3A) DN3A4-1.2 Vα14+ iNKT hybridoma cells and (3B) 7DW8-5-expanded Vα24^+ iNKT cells were incubated with various concentrations of the indicated dimeric mCD d-glycolipid and hCD1d-glycolipid complexes for 30 min at 4° C., respectively. The level of bound complexes at the indicated concentration was detected by anti-mIgG1 secondary antibody and analyzed by flow cytometry. The relationship between the binding percentage and the concentration of CD1ddi-glycolipids complex was plotted in mice (3A) and humans (3B). KD values in mice (3C) and humans (3D) were calculated from Scatchard transformation of the plot (3A) and 3B), respectively. Assay was performed in duplicates.
Briefly, murine CD1d:Ig dimer (BD Biosciences PharMingen, San Diego, Calif.) was loaded with glycolipids at a molar ratio of 1:10 or vehicle for overnight at 37° C. Murine 1.2 Vα14+ iNKT cells were incubated with various doses of dimer-glycolipid complex in buffer containing azide (0.05%) for 30 min at 4° C. These cells were then stained with anti-mouse IgG1-PE mAb (A85-1) for another 30 min at 4° C., followed by washing, fixation with 4% paraformaldehyde (PFA), and the bound mCD1d dimer complexes were detected by flow cytometry. The binding curve and linear fit of the Scatchard transformation were plotted by Graphpad Prism software.
(§1) Next, we measured the ternary interaction between CD1d-glcolipid complex and the iNKT TCR in mice and humans. Different concentrations of mCD1d^di-glycolipid and hCD1d^di-glycolipid complexes were incubated with fixed amounts of DN3A4-1.2 murine iNKT hybridoma cells and human Vα24+/Vβ11^+ iNKT cells, respectively. The level of bound complexes at the indicated concentration was detected by anti-mIgG1 secondary antibody and analyzed by flow cytometry (FIGS. 3A and 3B). The KD of the ternary complex was calculated from the Scatchard transformation of the plots in FIGS. 3A and 3B using GraphPad Prism software. […] This was consistent with the observation that higher percentages of C1-pulsed splenocytes were stained by the mCD1d-7DW8-5 complex (36.2±5.0%) than mCD1d-7DW8-5-Glc complex (17.1±0.8%) (FIG. 11).

Vα24+/Vβ11+ iNKT TCR = Vα24+/Vβ11+ iNKT TCR (Homo sapiens, UniProt A0A075B6N4+A0A0B4J240+P15813); assay: Binding avidity of hCD1d-loaded glycolipids with Vα24+ iNKT cells (ternary interaction); conditions: in complex with hCD1d; Scatchard transformation; read-out: KD of ternary complex, hCD1d-glycolipid toward Vα24+/Vβ11+ iNKT TCR
Method: as §1, with “(3A) DN3A4-1.2 Vα14+ iNKT hybridoma cells and (3B) 7DW8-5-expanded Vα24^+ iNKT cells were incubated with various concentrations of the indicated dimeric mCD d-glycolipid and hCD1d-glycolipid complexes for 30 min at 4° C., respectively. The level of bound complexes at the indicated concentration was detected by anti-mIgG1 secondary antibody and analyzed by flow cytometry. The relationship between the binding percentage and the concentration of CD1ddi-glycolipids complex was plotted in mice (3A) and humans (3B). KD values in mice (3C) and humans (3D) were calculated from Scatchard transformation of the plot (3A) and 3B), respectively. Assay was performed in duplicates. Binding avidity of human CD1d-glycolipid complexes to Vα24^+ iNKT cells expanded by 7DW8-5 at 100 ng/ml was determined as described previously.^19 Next,” for “Next,”

B6 wild type mice = assay: Murine serum cytokine/chemokine secretion after i.v. glycolipid, wild type mice; assay type: in vivo, mouse; conditions: 1 μg/mouse i.v.; 2 and 18 hr
Method: B6 wild type mice were i.v. injected with 7DW8-5-Glc at 0.1 or 1 μg/mouse. Sera collected at 2 h and 18 h post-injection were analyzed for chemokine secretions such as IP-10 (6A), KC (6B), MCP-1 (6C), and MIP-1α (6D). These chemokines peaked at 2 hr post-injection.
B6 wild type and Jα18 knockout mice were i.v. injected with the indicated glycolipids (1 μg/mouse) or vehicle. Sera collected at 2 h and 18 h post-injection were analyzed for cytokines like IL-2 (7A), IL-6 (7B), GM-CSF (7C) and TNFα (7D) as well as chemokines such as IP-10 (7E), MIG (7F), KC (7G) and MCP-1 (7H). Only MIG peaked at 18 hr post-injection, while the others peaked at 2 hr post-injection.
All the glycolipids were dissolved in 100% DMSO at a concentration of 1-2 mg/ml. For in vivo experiments, all compounds were diluted to 10 μg/ml in saline just before injection of 100 μl diluted glycolipid or 100 μl 1% DMSO into mice. Pathogen-free C57BL/6 female mice aged 6-12 weeks were obtained from the National Laboratory Animal Center (Taipei, Taiwan). Jα18 knockout (KO) B6 mice were the gifts from Dr. Masaru Taniguchi (RIKEN Research Center for Allergy and Immunology, Yokohama, Japan). All the mice were maintained in pathogen free vivarium of Institute of Cellular and Organismic Biology, Academia Sinica (Taipei, Taiwan).
B6 WT or Jα18 KO mice were intravenously injected with vehicle or glycolipids at 0.1 or 1 μg/mouse. Serum was collected at 2 and 18 h after injection for measurement of cytokines/chemokines by Beadlyte® Mouse Cytokine kit (Millipore, N.Y.) and read by a Luminex® 200™ system (Luminex, Austin, Tex.).
Previously, 0.1 μg/mouse of 7DW8-5 was sufficient for immune stimulation,^19 but higher dosage (1 μg/mouse) was required for the glucose analog 7DW8-5-Glc to induce immune responses (FIG. 6). Thus, the biological activities of newly synthesized glycolipids were tested in B6 mice 2 and 18 hr after i.v. injection of glycolipids at 1 μg/mouse. […] As compared to GSLs with αGlc, GSLs with αGal induced higher levels of cytokines and chemokines, including IFN-γ, IL-2, IL-4, IL-6, GM-CSF, TNFα and IP-10.

B6 WT mice splenocytes = assay: FACS analyses of WT mouse immune cells after glycolipid stimulation; assay type: in vivo; conditions: 1 μg/mouse; 72 hr
Method: B6 WT mice treated with the indicated glycolipid (1 μg/mouse) or vehicle (1% DMSO in PBS) were sacrificed at 72 hr post-injection and their splenocytes were subjected to FACS analysis. (8A) The total splenocytes, (8B) total CD11Chi cells, (8C) CD11Chi/CD80+ cells, (8D) CD11Chi/CD86+ cells, (8E) CD4^+ T cells and (8F) CD8^+ T cells.
B6 WT or Jα18 KO mice treated with specific glycolipid (1 μg/mouse) or vehicle (1% DMSO in PBS) were sacrificed at 72 hr post-injection and their spleens were harvested. After pressing spleens through 70 um strainer and lysis of erythrocytes, the nucleated cells were resuspended in PBS buffer containing azide (0.05%) and stained with antibodies recognizing the indicated cell surface antigens for 30 min at 4° C. After washing, the splenocytes were subjected to FACS analysis. The antibodies against CD3, CD4, CD8α, CD11c, CD80, and CD86 were obtained from BD Bioscience-Pharmingen.
Next, we analyzed the expansion/activation of immune cells in WT mice 3 days after glycolipid stimulation. The numbers of total T cells, CD4^+ T and CD8^+ T cells were higher in mice treated by GSLs with αGal head than those treated by GSLs with αGlc (FIGS. 2C, 8E and 8F). This was in line with the observation that more cytokines/chemokines were induced by GSLs with αGal than GSLs with αGlc in mice (FIGS. 2A, 2B and 7). […] As compared to 7DW8-5-Glc, C1-Glc not only expanded ˜1.3 fold more splenocytes and DCs (FIGS. 8A and 8B) but also activated ˜3.5 fold more CD80^+ DCs as well as ˜3 fold more CD86^+ DCs (FIGS. 8C and 8D). The increased expansion/activation of DCs may contribute to the stronger immunogenicity triggered by C1-Glc and C34-Glc as compared to 7DW8-5-Glc in vivo.

[2] = tested on: human Vα24-restricted NKT cells; assay: Cytokine production of human iNKT cells co-cultured with autologous DCs and glycolipids (Luminex); assay type: cell-based; conditions: 1 μg/mL; 72 hrs
Method: Human Vα24-restricted NKT cells were isolated from PBMC by magnetic beads, and iNKT cells were cultured with 50 μ/mL recombinant human IL-2. Two days later, iNKT cells were co-cultured with autologous monocyte-derived DCs and different glycolipids at 1 μg/mL in 96 wells. At 72 hrs, the supernatant were collected to determine the cytokines profiles by Luminex. (A) Secretion of IFN-γ and IL-4 was similar among all glycolipids. […] One-way ANOVA was used for statistic analysis. ***P<0.001 compared with C1. #, P<0.05 compared to C34.
To compare the capacities of C1, C34, K691, K705 and K706 in activating human iNKT cells, human Vα24-restricted NKT cells were isolated from PBMC by magnetic beads, and incubated with recombinant human IL-2 ([…]). Two days later, iNKT cells were co-cultured with autologous monocyte-derived DCs loaded with different glycolipids (1 μg/mL), including C1, C34, K691, K705 and K706, in 96 wells for three days. The supernatants were collected to determine cytokines/chemokines by Luminex assay. […] (Statistical evaluation was performed using one-way ANOVA. *P<0.05 compared with C1. #, P=0.002 compared with C34, using Student's T test).

Sequence of Vα24+/Vβ11+ iNKT TCR (P01848 whole entry): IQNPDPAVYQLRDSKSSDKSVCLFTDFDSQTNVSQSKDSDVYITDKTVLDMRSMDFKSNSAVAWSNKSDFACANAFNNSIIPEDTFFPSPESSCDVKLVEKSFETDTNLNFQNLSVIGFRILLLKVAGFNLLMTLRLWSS
Sequence of Vα24+/Vβ11+ iNKT TCR (A0A075B6N4 22-114): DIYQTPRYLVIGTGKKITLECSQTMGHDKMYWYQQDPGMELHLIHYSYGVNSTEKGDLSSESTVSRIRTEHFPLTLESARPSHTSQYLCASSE
Sequence of Vα24+/Vβ11+ iNKT TCR (P61769 21-119, further chain): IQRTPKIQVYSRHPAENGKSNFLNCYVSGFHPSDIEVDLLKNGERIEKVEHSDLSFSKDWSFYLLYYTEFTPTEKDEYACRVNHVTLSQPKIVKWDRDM
Sequence of Vα24+/Vβ11+ iNKT TCR (A0A0B4J240 22-114): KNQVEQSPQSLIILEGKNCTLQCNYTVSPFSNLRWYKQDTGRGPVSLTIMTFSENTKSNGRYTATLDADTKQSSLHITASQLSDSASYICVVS
Sequence of Vα24+/Vβ11+ iNKT TCR (P15813 20-301): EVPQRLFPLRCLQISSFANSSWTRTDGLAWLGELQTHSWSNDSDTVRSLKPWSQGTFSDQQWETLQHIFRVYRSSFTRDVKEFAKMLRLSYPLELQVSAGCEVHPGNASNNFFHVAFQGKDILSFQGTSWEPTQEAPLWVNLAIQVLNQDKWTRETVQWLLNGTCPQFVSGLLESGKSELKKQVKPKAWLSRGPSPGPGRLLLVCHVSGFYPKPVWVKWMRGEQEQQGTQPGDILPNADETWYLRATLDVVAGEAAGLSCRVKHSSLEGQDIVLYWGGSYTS

CCCCCCCCCCCCCCCCCCCCCCCCCC(=O)N[C@@H](CO[C@H]1O[C@H](CO)[C@H](O)[C@H](O)[C@H]1O)[C@H](O)[C@H](O)CCCCCCCCCCCCCC [Compound C1, α-Galactosyl ceramide, reference compound]
Kd [1]: 1.24 ± 0.003 nM | Kd (Vα24+/Vβ11+ iNKT TCR): 16.4 ± 4.2 nM

CCC(=O)N[C@@H](CO[C@H]1OC(CO)[C@@H](O)C(O)C1O)[C@H](O)[C@H](O)CC (some centres unmarked) [Compound C1-Glc]
Kd [1]: 5.14 ± 0.11 nM | induction of serum cytokines/chemokines (B6 wild type mice): triggered both cytokines and chemokines | Kd (Vα24+/Vβ11+ iNKT TCR): 8.55 ± 0.617 nM | CD80+ DCs activated, fold more than 7DW8-5-Glc (B6 WT mice splenocytes): ~3.5 fold | CD86+ DCs activated, fold more than 7DW8-5-Glc (B6 WT mice splenocytes): ~3 fold | DCs expanded, fold more than 7DW8-5-Glc (B6 WT mice splenocytes): ~1.3 fold | splenocytes expanded, fold more than 7DW8-5-Glc (B6 WT mice splenocytes): ~1.3 fold

CC[C@@H](O)[C@@H](O)[C@H](CO[C@H]1OC(CO)[C@@H](O)C(O)C1O)NC(=O)Cc1ccc(Oc2ccc(F)cc2)cc1 (some centres unmarked) [Compound C34-Glc]
Kd [1]: 7.96 ± 1.27 nM | induction of serum cytokines/chemokines (B6 wild type mice): triggered both cytokines and chemokines | Kd (Vα24+/Vβ11+ iNKT TCR): 0.378 ± 0.019 nM | CD80+ DCs activated, fold more than 7DW8-5-Glc (B6 WT mice splenocytes): ~2 fold | CD86+ DCs activated, fold more than 7DW8-5-Glc (B6 WT mice splenocytes): ~2 fold

CCCCCCCCCCCCCCC(O)C(O)C(COC1OC(CO)C(O)C(O)C1O)NC(=O)CCCCCCCCCCc1ccc(Oc2ccc(F)cc2)cc1 (centres unmarked) [Compound C34]
Kd [1]: 0.735 ± 0.01 nM | Kd (Vα24+/Vβ11+ iNKT TCR): 0.498 ± 0.005 nM | Ratio of IFN-γ/IL-4 compared with C1 [2]: significantly higher
